According to article PMC3856494, “Radiofluorination and biological evaluation of N-aryl-oxadiazolyl-propionamides as potential radioligands for PET imaging of cannabinoid CB2 receptors” (Organic and Medicinal Chemistry Letters, 2013):
Like-named read-outs stand apart in the source and are kept apart here. Values belong to the compound of their own block, whether it stands above or below them.

What was measured:
[1] = Ex vivo metabolite studies (radio-HPLC of plasma and brain extracts); format: in vivo, CD1 mice; conditions: mice
Method: (§1) [^18F]1 and [^18F]2 (100 to 150 MBq, 250 to 450 GBq/μmol in 150 μL NaCl 0.9%/10% EtOH) were injected via the tail vein in CD1 male mice (10 to 12 weeks old, 20 to 25 g). Blood and urine samples were obtained at 30 and 60 min p.i. (n = 3 per time point). Twofold extractions of plasma and brain samples (n = 3) were performed using ice-cold MeCN according to the standard protocol established in our group (see [47, 48]). Briefly, plasma samples were obtained by centrifugation of the blood at 4,000×g at 4°C for 10 min, and brain samples were homogenized in ice-cold 50 mM Tris–HCl (pH = 7.4). The samples were vortexed, incubated on ice, and centrifuged at 10,000×g for 3 min. Supernatants were collected, and the precipitates were re-dissolved in ice-cold MeCN for the second extraction. The supernatants from the two extractions were combined, concentrated under a gentle argon stream at 65°C, and analyzed by radio-TLC and gradient analytical HPLC (see ‘Radiochemistry’ section). Aliquots from each extraction supernatant and the precipitates were also taken and quantified by γ counting (Wallac Wizard 1470, Perkin Elmer Inc., Waltham, MA, USA) along with the respective aliquots of intact plasma samples and brain homogenates. A moderate recovery of radioactivity was obtained from plasma samples and brain homogenates (60% to 70%). Radiometabolites of [^18F]17 in the plasma, spleen, and brain were assessed at 30 and 60 min p.i.

[2] = In vivo metabolism of [18F]17 and uptake of [18F]10; design: species or system CD1 mice; conditions: for tissue uptake at 0.5 h / tissue uptake at 1 h: mouse, iv, after i.v. 100 to 200 kBq [18F]17, female CD1 mice
Method: The total amount of activity measured in, e.g. the plasma at particular times p.i. also depends on the kinetics of the excretion of radiotracer/radiometabolites. For [^18F]2, this is more pronounced than for [^18F]1 with unmetabolized [^18F]2 accounting for only 2% of the total radioactivity in the plasma at 30 min p.i. At this time, more than 90% of the recovered activity in plasma samples for [^18F]2 consisted of the single radiometabolite M1b. As this value decreases only slightly up to 60 min p.i. (88%), M1b can be assumed as a rather metabolically stable compound. This radiometabolite of [^18F]2 probably corresponds to the N-aryl-oxadiazolyl-propanoic acid resulting from enzymatic hydrolysis of the amide bond of 2[40]. […] In order introduce ^18F into the molecule, the carbon acid moiety was protected as a methyl ester resulting in the labelled compound [^18F]17 (Scheme 5). It was expected that after injection of this compound in mice, the ester will be converted into the free acid [^18F]10. […] After intravenous injection of [^18F]17 in CD1 mice, samples of the plasma, brain, and spleen were analyzed at 30 and 60 min p.i. (Table 5).
as §1

SMILES: Cc1ccc(S(=O)(=O)OCCn2c3ccccc3c3cc(NC(=O)CCc4nc(-c5ccc(F)cc5Br)no4)ccc32)cc1 [Compound 15, [2-(3-{3-[3-(2-Bromo-4-fluorophenyl)-1,2,4-oxadiazol-5-yl]propanamido}-9H-carbazol-9-yl)ethyl] 4-methylbenzenesulfonate]
melting point: 136 °C

SMILES: O=C(O)CCc1nc(-c2ccc([18F])cc2Br)no1 [[^18F]10]
Percentage of total activity in brain samples, 30 min p.i. ([1]; brain homogenate extract, 30 min p.i. of [18F]1 or [18F]2, radio-HPLC): 8% | Percentage of total activity in brain samples, 60 min p.i. ([1]; brain homogenate extract, 60 min p.i. of [18F]1 or [18F]2, radio-HPLC): 51% | Relative percentage of intact tracer and radiometabolites, Plasma 60 min p.i. ([1]; plasma, 60 min p.i. of [18F]1 or [18F]2, radio-HPLC): 88% | tissue uptake at 0.5 h ([2]; brain, read-out: uptake, Brain, 30 min p.i.): 0.28 %ID/g | tissue uptake at 1 h ([2]; brain, read-out: uptake, Brain, 60 min p.i.): 0.29 %ID/g | tissue uptake at 0.5 h ([2]; plasma, read-out: uptake, Plasma, 30 min p.i.): 18.2 %ID/g | tissue uptake at 1 h ([2]; plasma, read-out: uptake, Plasma, 60 min p.i.): 15.4 %ID/g | tissue uptake at 0.5 h ([2]; spleen, read-out: uptake, Spleen, 30 min p.i.): 1.35 %ID/g | tissue uptake at 1 h ([2]; spleen, read-out: uptake, Spleen, 60 min p.i.): 1.31 %ID/g | Further metabolic transformation in brain and spleen samples ([2]; up to 60 min p.i. of [18F]17, CD1 mice): no further metabolic transformation

SMILES: CCn1c2ccccc2c2cc(NC(=O)CCc3nc(-c4ccc([N+](C)(C)C)cc4Br)no3)ccc21.[I-] [Compound 13, 3-Bromo-4-(5-(3-((9-ethyl-9H-carbazol-3-yl)amino)-3-oxopropyl)-1,2,4-oxadiazol-3-yl)-N,N,N-trimethylbenzenaminium iodide]
melting point: 109 °C

Second part, the compound after the results:

melting point: 119 °C
SMILES: COC(=O)CCc1nc(-c2ccc([N+](C)(C)C)cc2Br)no1.[I-] [Compound 18, 3-Bromo-4-(5-(3-methoxy-3-oxopropyl)-1,2,4-oxadiazol-3-yl)-N,N,N-trimethylbenzenaminium iodide]

melting point: 39 °C
SMILES: COC(=O)CCc1nc(-c2ccc(F)cc2Br)no1 [Compound 17, Methyl-3-(3-(2-bromo-4-fluorophenyl)-1,2,4-oxadiazol-5-yl)propanoate]

Conversion to free acid [18F]10 in plasma samples ([2]; plasma, 30 min p.i., i.v., CD1 mice): completely converted
SMILES: COC(=O)CCc1nc(-c2ccc([18F])cc2Br)no1 [[^18F]17]
